From the CombiSolv-Exp solvation set (Vermeire and Green 2021)
Each block holds one compound with its values, some of them ahead of it.

Test: solvent given as SMILES
[1] = in CCCCCCCCC=CCCCCCCCC(=O)OCC(COC(=O)CCCCCCCC=CCCCCCCCC)OC(=O)CCCCCCCC=CCCCCCCCC

solvation free energy, 298 K (in O): -9.76 kcal/mol
SMILES: Cc1ccc(C(=O)N(C)C)cc1

SMILES: COP(=O)(OC)OC
solvation free energy, 298 K (in O): -8.7 kcal/mol

solvation free energy, 298 K (in O): -4.04 kcal/mol
SMILES: COC(OC)(OC)c1ccccc1

SMILES: CCCCOC
solvation free energy, 298 K (in CCCCCl): -4.26 kcal/mol
solvation free energy, 298 K (in ClC(Cl)(Cl)Cl): -4.39 kcal/mol
solvation free energy, 298 K (in ClCCl): -4.71 kcal/mol

SMILES: Oc1cccc2cccnc12
solvation free energy, 298 K (in O): -6.06 kcal/mol

solvation free energy, 298 K (in O): -20.5 kcal/mol
SMILES: OC1COC(O)C(O)C1O (centres undefined)

SMILES: CCCCO[N+](=O)[O-]
solvation free energy, 298 K (in O): -2.09 kcal/mol

solvation free energy, 298 K (in O): -9.37 kcal/mol
SMILES: CCCOC(=O)c1ccc(O)cc1

solvation free energy, 298 K (in C=CCCCCCCC=C): -10.2 kcal/mol
solvation free energy, 298 K (in C=CCCCCCCCCCCCCCC): -9.84 kcal/mol
solvation free energy, 298 K (in O): -17.4 kcal/mol
SMILES: Nc1ncnc2nc[nH]c12

solvation free energy, 298 K (in O): -9.4 kcal/mol
SMILES: CCC(N)=O

solvation free energy, 298 K (in O): -5.04 kcal/mol
SMILES: CC(C)Cc1cnccn1

SMILES: CCC(C)O (centres undefined)
solvation free energy, 298 K (in Brc1ccccc1): -4.15 kcal/mol
solvation free energy, 298 K (in C1COCCO1): -5.54 kcal/mol
solvation free energy, 298 K (in CC#N): -4.82 kcal/mol
solvation free energy, 298 K (in CC(=O)N(C)C): -5.89 kcal/mol
solvation free energy, 298 K (in CC(C)(C)O): -5.67 kcal/mol
solvation free energy, 298 K (in CC(C)CC(C)(C)C): -3.42 kcal/mol
solvation free energy, 298 K (in CC(C)O): -5.61 kcal/mol
solvation free energy, 298 K (in CC(C)OC(C)C): -4.56 kcal/mol
solvation free energy, 298 K (in CCC(C)=O): -5.18 kcal/mol
solvation free energy, 298 K (in CCCCCC): -3.56 kcal/mol
solvation free energy, 298 K (in CCCCCCC): -3.28 kcal/mol
solvation free energy, 298 K (in CCCCCCCC): -3.26 kcal/mol
solvation free energy, 298 K (in CCCCCCCCCCCCCCCC): -3.16 kcal/mol
solvation free energy, 298 K (in CCCCCCCCCCO): -5.31 kcal/mol
solvation free energy, 298 K (in CCCCCCCCO): -5.15 kcal/mol
solvation free energy, 298 K (in CCCCCl): -4.17 kcal/mol
solvation free energy, 298 K (in CCCCO): -5.5 kcal/mol
solvation free energy, 298 K (in CCCCOC(C)=O): -4.9 kcal/mol
solvation free energy, 298 K (in CCCOCCC): -4.4 kcal/mol
solvation free energy, 298 K (in CCOC(=O)c1ccccc1C(=O)OCC): -4.35 kcal/mol
solvation free energy, 298 K (in CN(C)C=O): -5.67 kcal/mol
solvation free energy, 298 K (in CO): -6.02 kcal/mol
solvation free energy, 298 K (in Cc1ccc(C)cc1): -4.23 kcal/mol
solvation free energy, 298 K (in Cc1cccc(C)c1): -4.14 kcal/mol
solvation free energy, 298 K (in Cc1ccccc1C): -4.19 kcal/mol
solvation free energy, 298 K (in Clc1ccccc1): -4.26 kcal/mol

SMILES: CCc1ccc2c(c1)C(=O)c1ccccc1C2=O
solvation free energy, 298 K (in C1CCCCC1): -12.2 kcal/mol
solvation free energy, 298 K (in C1CCOC1): -14.2 kcal/mol
solvation free energy, 298 K (in C1COCCO1): -14.1 kcal/mol
solvation free energy, 298 K (in CC1CCCCC1): -12.1 kcal/mol
solvation free energy, 298 K (in CC(C)CC(C)(C)C): -11.6 kcal/mol
solvation free energy, 298 K (in CC(C)CCO): -12.2 kcal/mol
solvation free energy, 298 K (in CC(C)CO): -12.1 kcal/mol
solvation free energy, 298 K (in CC(C)O): -12.1 kcal/mol
solvation free energy, 298 K (in CC(C)OC(C)C): -12.4 kcal/mol
solvation free energy, 298 K (in CCC(C)O): -12.3 kcal/mol
solvation free energy, 298 K (in CCCC(C)O): -12.3 kcal/mol
solvation free energy, 298 K (in CCCCC(CC)CO): -12.4 kcal/mol
solvation free energy, 298 K (in CCCCCC): -11.9 kcal/mol
solvation free energy, 298 K (in CCCCCCC): -12 kcal/mol
solvation free energy, 298 K (in CCCCCCCC): -12 kcal/mol
solvation free energy, 298 K (in CCCCCCCCCC): -12 kcal/mol
solvation free energy, 298 K (in CCCCCCCCO): -12.5 kcal/mol
solvation free energy, 298 K (in CCCCCCCO): -12.5 kcal/mol
solvation free energy, 298 K (in CCCCCCO): -12.4 kcal/mol
solvation free energy, 298 K (in CCCCCO): -12.4 kcal/mol
solvation free energy, 298 K (in CCCCCl): -13.5 kcal/mol
solvation free energy, 298 K (in CCCCO): -12.3 kcal/mol
solvation free energy, 298 K (in CCCCOC(C)=O): -13.4 kcal/mol
solvation free energy, 298 K (in CCCCOCCCC): -12.6 kcal/mol
solvation free energy, 298 K (in CCCO): -12.1 kcal/mol
solvation free energy, 298 K (in CCO): -12.6 kcal/mol
solvation free energy, 298 K (in CCOC(C)=O): -13.5 kcal/mol
solvation free energy, 298 K (in CO): -12.1 kcal/mol
solvation free energy, 298 K (in COC(C)=O): -13.7 kcal/mol
solvation free energy, 298 K (in O): -6.57 kcal/mol

SMILES: Cc1ccc(O)cc1C
solvation free energy, 298 K (in CCCCCC): -6.89 kcal/mol
solvation free energy, 298 K (in CCCCCCC): -6.89 kcal/mol
solvation free energy, 298 K (in CCCCCCCC): -6.85 kcal/mol
solvation free energy, 298 K (in O): -6.51 kcal/mol

SMILES: [N]=O
solvation free energy, 298 K (in CC#N): 0.63 kcal/mol
solvation free energy, 298 K (in CCCCCC): 0.47 kcal/mol
solvation free energy, 298 K (in CCO): 0.81 kcal/mol
solvation free energy, 298 K (in CCOC(C)=O): 0.55 kcal/mol
solvation free energy, 298 K (in CCOCC): 0.34 kcal/mol
solvation free energy, 298 K (in CO): 0.62 kcal/mol
solvation free energy, 298 K (in Cc1cccc(C)c1): 0.79 kcal/mol
solvation free energy, 298 K (in Cc1ccccc1): 0.76 kcal/mol
solvation free energy, 298 K (in ClC(Cl)(Cl)Cl): 0.62 kcal/mol

solvation free energy, 298 K (in O): 0.79 kcal/mol
SMILES: CC1=CCC2C(C1)C2(C)C (centres undefined)

SMILES: ClC1=C(Cl)C2(Cl)C3C4OC4C(Cl)C3C1(Cl)C2(Cl)Cl (centres undefined)
solvation free energy, 298 K [1]: -13 kcal/mol
solvation free energy, 298 K (in CCCCCCCCO): -11.7 kcal/mol

SMILES: CC(C)(C)c1ccc(O)cc1
solvation free energy, 298 K (in CCCCCC): -7.63 kcal/mol
solvation free energy, 298 K (in O): -5.91 kcal/mol

solvation free energy, 298 K [1]: -16.9 kcal/mol
solvation free energy, 298 K (in O): -7.83 kcal/mol
SMILES: c1cc2cccc3c4cccc5cccc(c(c1)c23)c54

SMILES: CC(Cl)(Cl)Cl
solvation free energy, 298 K (in C1CCOC1): -4.35 kcal/mol
solvation free energy, 298 K (in CC(=O)CC(C)C): -4.28 kcal/mol
solvation free energy, 298 K (in CC(C)=O): -4.23 kcal/mol
solvation free energy, 298 K (in CC(C)O): -3.56 kcal/mol
solvation free energy, 298 K (in CCCCCCCCCCCCCC): -3.61 kcal/mol
solvation free energy, 298 K (in CCCCCCCCCCCCCCCC): -3.67 kcal/mol
solvation free energy, 298 K (in CCCCCCCCN(CCCCCCCC)CCCCCCCC): -3.63 kcal/mol
solvation free energy, 298 K (in CCCCCCCCO): -3.67 kcal/mol
solvation free energy, 298 K (in CCCCCN(CCCCC)CCCCC): -3.78 kcal/mol
solvation free energy, 298 K (in CCCCCl): -4.32 kcal/mol
solvation free energy, 298 K (in CCCCN(CCCC)CCCC): -3.69 kcal/mol
solvation free energy, 298 K (in CCCCOCCCC): -4.08 kcal/mol
solvation free energy, 298 K (in CCCO): -3.94 kcal/mol
solvation free energy, 298 K (in CCOCC): -4.13 kcal/mol
solvation free energy, 298 K (in ClC(Cl)(Cl)Cl): -4.24 kcal/mol
solvation free energy, 298 K (in ClC(Cl)Cl): -4.42 kcal/mol
solvation free energy, 298 K (in ClCCCl): -4.24 kcal/mol
solvation free energy, 298 K (in [2H]O[2H]): -0.57 kcal/mol
